From PubChem BioAssay (NCI)
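Following 48 hours of exposure in 96-well plates, responses at five concentrations were used to interpolate endpoints linearly. GI50: concentration for 50% inhibition of growth. TGI: concentration producing complete growth inhibition.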

What was measured:
Assay in all cases: NCI-60 cell line screen, 48 h
CCRF-CEM leukemia = test system: CCRF-CEM leukemia
HOP-62 NSCLC = test system: HOP-62 NSCLC
IGROV1 ovarian = test system: IGROV1 ovarian
NCI-H522 lung = test system: NCI-H522 lung
NCI/ADR-RES ovarian = test system: NCI/ADR-RES ovarian
OVCAR-8 ovarian = test system: OVCAR-8 ovarian
SF-268 CNS = test system: SF-268 CNS
SF-295 CNS = test system: SF-295 CNS
SW-620 colon = test system: SW-620 colon
U251 CNS = test system: U251 CNS

| SMILES | GI50 (CCRF-CEM leukemia) [µM] | TGI (CCRF-CEM leukemia) [µM] | GI50 (HOP-62 NSCLC) [µM] | TGI (HOP-62 NSCLC) [µM] | GI50 (IGROV1 ovarian) [µM] | TGI (IGROV1 ovarian) [µM] | GI50 (NCI-H522 lung) [µM] | TGI (NCI-H522 lung) [µM] | GI50 (NCI/ADR-RES ovarian) [µM] | TGI (NCI/ADR-RES ovarian) [µM] | GI50 (OVCAR-8 ovarian) [µM] | TGI (OVCAR-8 ovarian) [µM] | GI50 (SF-268 CNS) [µM] | TGI (SF-268 CNS) [µM] | GI50 (SF-295 CNS) [µM] | TGI (SF-295 CNS) [µM] | GI50 (SW-620 colon) [µM] | TGI (SW-620 colon) [µM] | GI50 (U251 CNS) [µM] | TGI (U251 CNS) [µM] |
| --- | --- | --- | --- | --- | --- | --- | --- | --- | --- | --- | --- | --- | --- | --- | --- | --- | --- | --- | --- | --- |
| COc1ccc2c(c1)/C(=C\c1cccnc1)C(=O)N2 | 10.8 | > 100 | 23 | 60.3 | 32.2 | > 100 | 17.8 | 64 | 25.4 | 70.1 | 11.8 | 43.6 | 12.9 | 37 | 13.4 | 60.4 | 41 | > 100 | 7.84 | 47.7 |
| COc1ccc(-c2cc(=O)c3c(C)cc(C)nc3[nH]2)cc1 |  | 43.2 |  | > 100 |  | 84.8 |  | > 100 |  | > 100 |  | > 100 |  | > 100 | 42.5 | > 100 |  | > 100 | 90.7 | > 100 |
| COc1cc(CCN)c2c(c1OC)SSSSS2 | 0.395 |  | 1.81 | 3.3 | 0.336 | 1.55 | 0.203 | 0.849 | 1.63 | 3.73 | 1.22 | 2.71 | 1.95 | 4.76 | 1.79 | 3.99 | 0.101 | 0.283 | 1.08 | 2.46 |
| CCc1n(Cc2ccc3ccccc3n2)cc[n+]1Cc1ccc2ccccc2n1 | 0.388 | 15.4 | 4.66 | 31.5 | 0.214 | 16.7 | 0.0837 | 1.49 | > 100 | > 100 | 1.63 | 17.6 | 0.453 | 14.2 | 2.81 | 20.1 | 1.39 | 30.2 | 0.186 | 13.5 |
| Cc1c(S(C)(=O)=O)c(-c2cc(F)cc(N3CCN(c4ccc(NS(=O)(=O)c5ccc(N[C@H](CCN6CCC(C(=O)OCCCP(=O)(O)O)CC6)CSc6ccccc6)c(S(=O)(=O)C(F)(F)F)c5)cc4)CC3)c2)c(-c2ccc(Cl)cc2)n1C(C)C | 0.456 | > 100 | > 100 | > 100 | > 100 | > 100 | > 100 | > 100 | > 100 | > 100 | > 100 | > 100 | > 100 | > 100 | > 100 | > 100 | > 100 | > 100 | > 100 | > 100 |
| COc1ccc(-c2nc3sc(-c4ccc(Cl)cc4)cn3n2)cc1 | > 50 | > 50 | 2.36 | > 50 | 1.15 | 8.13 | 14.9 | > 50 | 3.75 | > 50 | 2.6 | > 50 | 48 | > 50 | 2.81 | 31.8 | 5.51 | > 50 | 1.03 | 2.29 |
| C/C(=N\O)c1cccc(Nc2cc(-n3ccnn3)c3ccccc3n2)c1 | 11.7 | 31.3 | 15.2 | 30.7 | 12.6 | 27.7 | 13.2 | 28.9 | 20.8 | > 100 | 17.5 | 41 | > 100 | > 100 | 18.5 | 47.8 | 21.1 | 50.6 | 19.9 | 62.2 |
| O=C1C(c2c[nH]c3ccccc23)=C(c2c[nH]c3ccccc23)C(=O)N1O | > 25 | > 25 | > 25 | > 25 | > 25 | > 25 | > 25 | > 25 | > 25 | > 25 | > 25 | > 25 | > 25 | > 25 | > 25 | > 25 | > 25 | > 25 | > 25 | > 25 |
| COc1ccc(C2SCC(=O)N2NC(=O)C(O)c2ccccc2)cc1OC (stereo unspecified) | > 100 | > 100 | > 100 | > 100 | > 100 | > 100 | > 100 | > 100 | > 100 | > 100 | > 100 | > 100 | > 100 | > 100 | > 100 | > 100 | > 100 | > 100 | > 100 | > 100 |
| COc1ccc(N2Cc3cnc(Nc4ccccc4)nc3N([C@@H]3CC[C@@H](O)C3)C2=O)cc1 | 5.98 | > 25 | 8.87 | > 25 | 2.46 | > 18.5 | 2.93 | > 18.8 | 6.9 | > 25 | 4.86 | > 25 | 5.05 | > 25 | 17.6 | > 25 | 3.81 | > 18.2 | 1.01 | > 25 |
